Measured values: patent US6737383B1, “Herbicidal oxadiazolidines” (priority 1999, dated 2004)

Experiments:
velvetleaf = assay: Test B pre/postemergence velvetleaf; format: in vivo, Abutilon theophrasti
Procedure, shortened: (§1)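 Herbicidal effect was estimated by eye on a ten-point control scale after plants spent twelve to sixteen days in a greenhouse following soil or foliar treatment. Foliar sprays targeted plants at one to four leaves; all doses were formulated in a non-phytotoxic solvent with surfactant.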

smallflower flatsedge = assay: Test B flood test smallflower flatsedge; format: in vivo, Cyperus difformis
Procedure, shortened: (§2)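 Each value is a visual injury score relative to controls, with 10 meaning complete control and 0 no effect. Evaluation took place twelve to sixteen days after the 2-leaf-stage plants were treated and kept in the greenhouse.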

sugar beet = assay: Test B pre/postemergence sugar beet; format: in vivo, Beta vulgaris
Procedure, shortened: as §1

rice = assay: Test B flood test rice; format: in vivo, Oryza sativa
Procedure, shortened: as §2

cocklebur = assay: Test B pre/postemergence cocklebur; format: in vivo, Xanthium strumarium
Procedure, shortened: as §1

wheat = assay: Test B pre/postemergence wheat; format: in vivo, Triticum aestivum
Procedure, shortened: as §1

giant foxtail = assay: Test B pre/postemergence giant foxtail; format: in vivo, Setaria faberii
Procedure, shortened: as §1

wild oat = assay: Test B pre/postemergence wild oat; format: in vivo, Avena fatua
Procedure, shortened: as §1

soybean = assay: Test B pre/postemergence soybean; format: in vivo, Glycine max
Procedure, shortened: as §1

purple nutsedge = assay: Test B pre/postemergence purple nutsedge; format: in vivo, Cyperus rotundus; settings: Preemergence; for Nutsedge plant response rating: Rate 500 g/ha, scale 0 (no effect) to 10 (complete control)
Procedure, shortened: as §1

duck salad = assay: Test B flood test duck salad; format: in vivo, Heteranthera limosa
Procedure, shortened: as §2

bedstraw = assay: Test B pre/postemergence bedstraw; format: in vivo, Galium aparine
Procedure, shortened: as §1

pigweed = assay: Test B pre/postemergence pigweed; format: in vivo, Amaranthus retroflexus
Procedure, shortened: as §1

surinam grass = assay: Test B pre/postemergence surinam grass; format: in vivo, Brachiaria decumbens
Procedure, shortened: as §1

corn = assay: Test B pre/postemergence corn; format: in vivo, Zea mays
Procedure, shortened: as §1

rape = assay: Test B pre/postemergence rape; format: in vivo, Brassica napus
Procedure, shortened: as §1

[1] = Postemergence, Rate 250 g/ha, scale 0 to 10, 0 no effect, 10 complete control
[2] = Postemergence, Rate 1000 g/ha, scale 0 to 10 (0 no effect, 10 complete control)
[3] = Preemergence, Rate 125 g/ha, scale 0 to 10 (0 no effect, 10 complete control)
[4] = Preemergence, Rate 250 g/ha, scale of 0 to 10 where 0 is no effect and 10 is complete control
[5] = Preemergence, Rate 500 g/ha, scale 0 (no effect) to 10 (complete control)
[6] = Rate 125 g/ha, Postemergence, scale 0 to 10, 0 no effect, 10 complete control
[7] = Rate 1000 g/ha, Preemergence, scale 0 to 10 (0 no effect, 10 complete control)
[8] = Rate 125 g/ha, Postemergence section (flood test species), scale 0 to 10, 0 no effect, 10 complete control
[9] = flood test, listed under Postemergence, Rate 250 g/ha, scale 0 to 10, 0 no effect, 10 complete control
[10] = Rate 500 g/ha, Postemergence section of Table B, 0 to 10 scale (0 no effect, 10 complete control)
[11] = Rate 500 g/ha, Postemergence, 0 to 10 scale (0 no effect, 10 complete control)
[12] = Rate 125 g/ha, scale 0 to 10 (0 no effect, 10 complete control)
[13] = Rate 250 g/ha, scale of 0 to 10 where 0 is no effect and 10 is complete control
[14] = Rate 1000 g/ha, scale 0 to 10 (0 no effect, 10 complete control)

## COc1ccc(-n2c(=O)on(C(=O)N(C3=CCOCC3)C(C)C)c2=O)cc1 [Compound 6]
velvetleaf; [1]
  Velvetleaf plant response rating: 0
velvetleaf; [2]
  Velvetleaf plant response rating: 1
velvetleaf; [3]
  Plant response rating, Velvetleaf: 0
velvetleaf; [4]
  Plant response rating, Velvetleaf: 2
velvetleaf; [5]
  Velvetleaf plant response rating: 2
velvetleaf; [6]
  Velvetleaf plant response rating: 0
velvetleaf; [7]
  Plant response rating, Velvetleaf: 4
Smallflower flatsedge; [2]
  S. Flatsedge plant response rating: 3
Smallflower flatsedge; [8]
  S. Flatsedge plant response rating: 0
Smallflower flatsedge; [9]
  S. Flatsedge plant response rating: 0
Sugar beet; [1]
  Sugarbeets plant response rating: 0
Sugar beet; [2]
  Sugarbeets plant response rating: 3
Sugar beet; [3]
  Plant response rating, Sugarbeets: 0
Sugar beet; [4]
  Plant response rating, Sugarbeets: 0
Sugar beet; [5]
  Sugarbeets plant response rating: 0
Sugar beet; [6]
  Sugarbeets plant response rating: 0
Sugar beet; [7]
  Plant response rating, Sugarbeets: 0
rice; [2]
  Rice plant response rating: 3
rice; [8]
  Rice plant response rating: 0
rice; [10]
  Rice plant response rating: 0
rice; [9]
  Rice plant response rating: 0
cocklebur; [1]
  Cocklebur plant response rating: 0
cocklebur; [2]
  Cocklebur plant response rating: 0
cocklebur; [3]
  Plant response rating, Cocklebur: 0
cocklebur; [4]
  Plant response rating, Cocklebur: 0
cocklebur; [5]
  Cocklebur plant response rating: 0
cocklebur; [6]
  Cocklebur plant response rating: 0
cocklebur; [11]
  Cocklebur plant response rating: 0
cocklebur; [7]
  Plant response rating, Cocklebur: 2
wheat; [1]
  Wheat plant response rating: 0
wheat; [2]
  Wheat plant response rating: 0
wheat; [3]
  Plant response rating, Wheat: 0
wheat; [4]
  Plant response rating, Wheat: 0
wheat; [5]
  Wheat plant response rating: 0
wheat; [6]
  Wheat plant response rating: 0
wheat; [7]
  Plant response rating, Wheat: 3
Giant foxtail; [1]
  Giant foxtail plant response rating: 4
Giant foxtail; [2]
  Giant foxtail plant response rating: 7
Giant foxtail; [3]
  Plant response rating, Giant foxtail: 3
Giant foxtail; [4]
  Plant response rating, Giant foxtail: 4
Giant foxtail; [5]
  Giant foxtail plant response rating: 9
Giant foxtail; [6]
  Giant foxtail plant response rating: 2
Giant foxtail; [11]
  Giant foxtail plant response rating: 5
Giant foxtail; [7]
  Plant response rating, Giant foxtail: 9
Wild oat; [1]
  Wild oats plant response rating: 0
Wild oat; [2]
  Wild oats plant response rating: 4
Wild oat; [3]
  Plant response rating, Wild oats: 0
Wild oat; [4]
  Plant response rating, Wild oats: 0
Wild oat; [5]
  Wild oats plant response rating: 3
Wild oat; [6]
  Wild oats plant response rating: 0
Wild oat; [7]
  Plant response rating, Wild oats: 6
soybean; [1]
  Soybean plant response rating: 3
soybean; [2]
  Soybean plant response rating: 6
soybean; [3]
  Plant response rating, Soybean: 0
soybean; [4]
  Plant response rating, Soybean: 0
soybean; [5]
  Soybean plant response rating: 0
soybean; [6]
  Soybean plant response rating: 3
soybean; [7]
  Plant response rating, Soybean: 0
Purple nutsedge; [12]
  Plant response rating, Nutsedge: 0
Purple nutsedge; [13]
  Plant response rating, Nutsedge: 0
Purple nutsedge
  Nutsedge plant response rating: 0
Purple nutsedge; [14]
  Plant response rating, Nutsedge: 0
Duck salad; [2]
  Ducksalad plant response rating: 0
Duck salad; [8]
  Ducksalad plant response rating: 0
Duck salad; [10]
  Ducksalad plant response rating: 0
Duck salad; [9]
  Ducksalad plant response rating: 0
bedstraw; [1]
  Bedstraw plant response rating: 0
bedstraw; [2]
  Bedstraw plant response rating: 3
bedstraw; [3]
  Plant response rating, Bedstraw: 0
bedstraw; [4]
  Plant response rating, Bedstraw: 0
bedstraw; [5]
  Bedstraw plant response rating: 0
bedstraw; [6]
  Bedstraw plant response rating: 0
bedstraw; [11]
  Bedstraw plant response rating: 0
bedstraw; [7]
  Plant response rating, Bedstraw: 0
pigweed; [1]
  Redroot pigweed plant response rating: 0
pigweed; [2]
  Redroot pigweed plant response rating: 4
pigweed; [3]
  Plant response rating, Redroot pigweed: 5
pigweed; [4]
  Plant response rating, Redroot pigweed: 5
pigweed; [5]
  Redroot pigweed plant response rating: 7
pigweed; [6]
  Redroot pigweed plant response rating: 0
pigweed; [11]
  Redroot pigweed plant response rating: 0
pigweed; [7]
  Plant response rating, Redroot pigweed: 7
Surinam grass; [1]
  B. signalgrass plant response rating: 2
Surinam grass; [2]
  B. signalgrass plant response rating: 7
Surinam grass; [3]
  Plant response rating, B. signalgrass: 0
Surinam grass; [4]
  Plant response rating, B. signalgrass: 0
Surinam grass; [5]
  B. signalgrass plant response rating: 0
Surinam grass; [6]
  B. signalgrass plant response rating: 0
Surinam grass; [11]
  B. signalgrass plant response rating: 5
Surinam grass; [7]
  Plant response rating, B. signalgrass: 5
corn; [1]
  Corn plant response rating: 0
corn; [2]
  Corn plant response rating: 4
corn; [3]
  Plant response rating, Corn: 0
corn; [4]
  Plant response rating, Corn: 1
corn; [5]
  Corn plant response rating: 2
corn; [6]
  Corn plant response rating: 0
corn; [11]
  Corn plant response rating: 0
corn; [7]
  Plant response rating, Corn: 5
rape; [1]
  Rape plant response rating: 0
rape; [2]
  Rape plant response rating: 2
rape; [3]
  Plant response rating, Rape: 0
rape; [4]
  Plant response rating, Rape: 0
rape; [5]
  Rape plant response rating: 0
rape; [6]
  Rape plant response rating: 0
rape; [11]
  Rape plant response rating: 0
rape; [7]
  Plant response rating, Rape: 0

## CC(C)N(C(=O)n1oc(=O)n(-c2cc(Cl)cc(Cl)c2)c1=O)C1=CCOCC1 [Compound 9]
velvetleaf; [1]
  Velvetleaf plant response rating: 0
velvetleaf; [2]
  Velvetleaf plant response rating: 0
velvetleaf; [3]
  Plant response rating, Velvetleaf: 0
velvetleaf; [4]
  Plant response rating, Velvetleaf: 0
velvetleaf; [5]
  Velvetleaf plant response rating: 0
velvetleaf; [6]
  Velvetleaf plant response rating: 0
velvetleaf; [7]
  Plant response rating, Velvetleaf: 0
Smallflower flatsedge; [2]
  S. Flatsedge plant response rating: 0
Smallflower flatsedge; [8]
  S. Flatsedge plant response rating: 0
Smallflower flatsedge; [9]
  S. Flatsedge plant response rating: 0
Sugar beet; [1]
  Sugarbeets plant response rating: 0
Sugar beet; [2]
  Sugarbeets plant response rating: 0
Sugar beet; [3]
  Plant response rating, Sugarbeets: 0
Sugar beet; [4]
  Plant response rating, Sugarbeets: 0
Sugar beet; [5]
  Sugarbeets plant response rating: 0
Sugar beet; [6]
  Sugarbeets plant response rating: 0
Sugar beet; [7]
  Plant response rating, Sugarbeets: 0
rice; [2]
  Rice plant response rating: 0
rice; [8]
  Rice plant response rating: 0
rice; [10]
  Rice plant response rating: 0
rice; [9]
  Rice plant response rating: 0
cocklebur; [1]
  Cocklebur plant response rating: 0
cocklebur; [2]
  Cocklebur plant response rating: 4
cocklebur; [3]
  Plant response rating, Cocklebur: 0
cocklebur; [4]
  Plant response rating, Cocklebur: 0
cocklebur; [5]
  Cocklebur plant response rating: 0
cocklebur; [6]
  Cocklebur plant response rating: 0
cocklebur; [11]
  Cocklebur plant response rating: 0
cocklebur; [7]
  Plant response rating, Cocklebur: 0
wheat; [1]
  Wheat plant response rating: 0
wheat; [2]
  Wheat plant response rating: 0
wheat; [3]
  Plant response rating, Wheat: 0
wheat; [4]
  Plant response rating, Wheat: 0
wheat; [5]
  Wheat plant response rating: 0
wheat; [6]
  Wheat plant response rating: 0
wheat; [7]
  Plant response rating, Wheat: 0
Giant foxtail; [1]
  Giant foxtail plant response rating: 0
Giant foxtail; [2]
  Giant foxtail plant response rating: 0
Giant foxtail; [3]
  Plant response rating, Giant foxtail: 0
Giant foxtail; [4]
  Plant response rating, Giant foxtail: 0
Giant foxtail; [5]
  Giant foxtail plant response rating: 3
Giant foxtail; [6]
  Giant foxtail plant response rating: 0
Giant foxtail; [11]
  Giant foxtail plant response rating: 0
Giant foxtail; [7]
  Plant response rating, Giant foxtail: 7
Wild oat; [1]
  Wild oats plant response rating: 0
Wild oat; [2]
  Wild oats plant response rating: 0
Wild oat; [3]
  Plant response rating, Wild oats: 0
Wild oat; [4]
  Plant response rating, Wild oats: 0
Wild oat; [5]
  Wild oats plant response rating: 0
Wild oat; [6]
  Wild oats plant response rating: 0
Wild oat; [7]
  Plant response rating, Wild oats: 0
soybean; [1]
  Soybean plant response rating: 0
soybean; [2]
  Soybean plant response rating: 1
soybean; [3]
  Plant response rating, Soybean: 0
soybean; [4]
  Plant response rating, Soybean: 0
soybean; [5]
  Soybean plant response rating: 0
soybean; [6]
  Soybean plant response rating: 0
soybean; [7]
  Plant response rating, Soybean: 0
Purple nutsedge; [12]
  Plant response rating, Nutsedge: 0
Purple nutsedge; [13]
  Plant response rating, Nutsedge: 0
Purple nutsedge
  Nutsedge plant response rating: 0
Purple nutsedge; [14]
  Plant response rating, Nutsedge: 0
Duck salad; [2]
  Ducksalad plant response rating: 0
Duck salad; [8]
  Ducksalad plant response rating: 0
Duck salad; [10]
  Ducksalad plant response rating: 0
Duck salad; [9]
  Ducksalad plant response rating: 0
bedstraw; [1]
  Bedstraw plant response rating: 0
bedstraw; [3]
  Plant response rating, Bedstraw: 0
bedstraw; [4]
  Plant response rating, Bedstraw: 0
bedstraw; [5]
  Bedstraw plant response rating: 0
bedstraw; [6]
  Bedstraw plant response rating: 0
bedstraw; [11]
  Bedstraw plant response rating: 0
bedstraw; [7]
  Plant response rating, Bedstraw: 0
pigweed; [1]
  Redroot pigweed plant response rating: 0
pigweed; [2]
  Redroot pigweed plant response rating: 3
pigweed; [3]
  Plant response rating, Redroot pigweed: 0
pigweed; [4]
  Plant response rating, Redroot pigweed: 0
pigweed; [5]
  Redroot pigweed plant response rating: 0
pigweed; [6]
  Redroot pigweed plant response rating: 0
pigweed; [11]
  Redroot pigweed plant response rating: 3
pigweed; [7]
  Plant response rating, Redroot pigweed: 0
Surinam grass; [1]
  B. signalgrass plant response rating: 0
Surinam grass; [2]
  B. signalgrass plant response rating: 0
Surinam grass; [3]
  Plant response rating, B. signalgrass: 0
Surinam grass; [4]
  Plant response rating, B. signalgrass: 0
Surinam grass; [5]
  B. signalgrass plant response rating: 0
Surinam grass; [6]
  B. signalgrass plant response rating: 0
Surinam grass; [11]
  B. signalgrass plant response rating: 0
Surinam grass; [7]
  Plant response rating, B. signalgrass: 0
corn; [1]
  Corn plant response rating: 0
corn; [2]
  Corn plant response rating: 0
corn; [3]
  Plant response rating, Corn: 0
corn; [4]
  Plant response rating, Corn: 0
corn; [5]
  Corn plant response rating: 0
corn; [6]
  Corn plant response rating: 0
corn; [11]
  Corn plant response rating: 0
corn; [7]
  Plant response rating, Corn: 3
rape; [1]
  Rape plant response rating: 0
rape; [2]
  Rape plant response rating: 0
rape; [3]
  Plant response rating, Rape: 0
rape; [4]
  Plant response rating, Rape: 0
rape; [5]
  Rape plant response rating: 0
rape; [6]
  Rape plant response rating: 0
rape; [11]
  Rape plant response rating: 0
rape; [7]
  Plant response rating, Rape: 0
